Data on one compound can be found in article PMC5085761 (International Journal of Molecular Sciences, 2016).

One series deals with T1, human P-gp (Homo sapiens, UniProt P08183).
T1 construct: purchased GenoMembrane Co., Ltd. (Kanagawa, Japan); host or cells: Sf9
Kind of series: [14C]fluciclovine uptake by P-gp-expressing inside-out vesicles. The class given is in vitro ADME. On the procedure: For ABC transporters, experimental kits containing Sf9-derived vesicles with high expression levels of human P-gp, MRP4, BCRP, and each ABC transporter (including buffer, ATP/AMP solution, and glutathione) were purchased from GenoMembrane Co., Ltd. (Kanagawa, Japan).
Vesicular transport assays were carried out according to the manufacturer’s protocol. […] The reaction was started by suspending 50 μg of vesicles (10 μL) in 40 μL of the reaction buffer. After incubation for an appropriate period of time, the reaction was stopped by the addition of ice-cold stop buffer (40 mM MOPS-Tris and 70 mM KCl; pH 7.0), after which the solution was filtered through a 0.45 μm HA filter (Millipore Corp., Billerica, MA, USA) using suction, and was washed twice in 5 mL of ice-cold stop buffer. The radioactivity of the filter was measured with a Tri-Carb 2910TR liquid scintillation counter (PerkinElmer) using Ultima Gold (PerkinElmer). The amount of tracer uptake was normalized to the membrane protein amount described in the product information sheets.

The target of the next series is T2, OATP1B1 (Homo sapiens, UniProt Q9Y6L6).
T2 construct: host or cells: HEK293
T2 sequence (Q9Y6L6 1-691): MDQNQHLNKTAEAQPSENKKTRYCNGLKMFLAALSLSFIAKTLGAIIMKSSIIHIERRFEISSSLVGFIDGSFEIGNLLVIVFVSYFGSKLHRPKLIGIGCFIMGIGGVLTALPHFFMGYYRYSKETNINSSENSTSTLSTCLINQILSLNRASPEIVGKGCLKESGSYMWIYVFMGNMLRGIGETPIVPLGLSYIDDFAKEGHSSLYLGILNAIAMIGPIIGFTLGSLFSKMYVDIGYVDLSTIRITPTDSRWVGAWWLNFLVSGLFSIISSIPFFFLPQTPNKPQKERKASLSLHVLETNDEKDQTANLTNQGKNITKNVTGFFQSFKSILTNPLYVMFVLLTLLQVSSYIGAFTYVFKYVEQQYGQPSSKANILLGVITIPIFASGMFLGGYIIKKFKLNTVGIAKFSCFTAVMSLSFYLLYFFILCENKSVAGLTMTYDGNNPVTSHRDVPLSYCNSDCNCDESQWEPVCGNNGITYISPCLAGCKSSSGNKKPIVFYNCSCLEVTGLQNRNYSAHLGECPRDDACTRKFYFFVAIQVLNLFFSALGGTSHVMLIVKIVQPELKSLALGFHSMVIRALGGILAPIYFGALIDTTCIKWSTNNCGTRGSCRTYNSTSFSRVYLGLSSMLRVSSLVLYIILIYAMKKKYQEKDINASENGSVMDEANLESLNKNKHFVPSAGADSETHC
Put plainly: [14C]fluciclovine uptake by OATP1B1-expressing cells. Type of series: in vitro ADME. The note with it: OATP1B1 cells vs mock cells. As to the method: For the SLC transporter experiments, Mock Flp-in-293 cells (Flp/mock), OAT1-expressing Flp-in-293 cells (Flp/OAT1), mock HEK293 cells (HEK/mock), and OATP1B3-expressing HEK293 cells (HEK/OATP1B3) were obtained from Kanazawa University (Ishikawa, Japan). Briefly, Flp-in-293 and HEK293 cells were transfected with the appropriate plasmid DNA and selected using antibiotics (hygromycin or G-418). All cell lines were cultured in DMEM (Life Technologies Japan) supplemented with 10% (v/v) fetal bovine serum (American Type Culture Collection) and antibiotics (100 U/mL penicillin and 100 μg/mL streptomycin (Life Technologies Japan) for mock cells, 0.2 mg/mL hygromycin for Flp/OAT1 cells, and 1.2 mg/mL G-418 (Roche Diagnostics K.K., Tokyo, Japan) for HEK/OATP1B3 cells) at 37 °C under an atmosphere containing 5% CO2. […]
The experiments were performed as described previously, with minor modifications. […] The cells were lysed in 0.3 mL of 0.1N NaOH at room temperature, after which the radioactivity of each aliquot was measured as described above. The protein concentration of the cell lysate was determined with a VersaMax microplate reader (Molecular Devices Japan K.K., Osaka, Japan) or SpectraMax i3x (Molecular Devices Japan K.K.; only for OATP1B1) using a BCA Protein Assay Kit (Thermo Fisher Scientific, Kanagawa, Japan). Tracer uptake was expressed as pmol/mg protein. […]

T1 sequence (P08183 whole entry): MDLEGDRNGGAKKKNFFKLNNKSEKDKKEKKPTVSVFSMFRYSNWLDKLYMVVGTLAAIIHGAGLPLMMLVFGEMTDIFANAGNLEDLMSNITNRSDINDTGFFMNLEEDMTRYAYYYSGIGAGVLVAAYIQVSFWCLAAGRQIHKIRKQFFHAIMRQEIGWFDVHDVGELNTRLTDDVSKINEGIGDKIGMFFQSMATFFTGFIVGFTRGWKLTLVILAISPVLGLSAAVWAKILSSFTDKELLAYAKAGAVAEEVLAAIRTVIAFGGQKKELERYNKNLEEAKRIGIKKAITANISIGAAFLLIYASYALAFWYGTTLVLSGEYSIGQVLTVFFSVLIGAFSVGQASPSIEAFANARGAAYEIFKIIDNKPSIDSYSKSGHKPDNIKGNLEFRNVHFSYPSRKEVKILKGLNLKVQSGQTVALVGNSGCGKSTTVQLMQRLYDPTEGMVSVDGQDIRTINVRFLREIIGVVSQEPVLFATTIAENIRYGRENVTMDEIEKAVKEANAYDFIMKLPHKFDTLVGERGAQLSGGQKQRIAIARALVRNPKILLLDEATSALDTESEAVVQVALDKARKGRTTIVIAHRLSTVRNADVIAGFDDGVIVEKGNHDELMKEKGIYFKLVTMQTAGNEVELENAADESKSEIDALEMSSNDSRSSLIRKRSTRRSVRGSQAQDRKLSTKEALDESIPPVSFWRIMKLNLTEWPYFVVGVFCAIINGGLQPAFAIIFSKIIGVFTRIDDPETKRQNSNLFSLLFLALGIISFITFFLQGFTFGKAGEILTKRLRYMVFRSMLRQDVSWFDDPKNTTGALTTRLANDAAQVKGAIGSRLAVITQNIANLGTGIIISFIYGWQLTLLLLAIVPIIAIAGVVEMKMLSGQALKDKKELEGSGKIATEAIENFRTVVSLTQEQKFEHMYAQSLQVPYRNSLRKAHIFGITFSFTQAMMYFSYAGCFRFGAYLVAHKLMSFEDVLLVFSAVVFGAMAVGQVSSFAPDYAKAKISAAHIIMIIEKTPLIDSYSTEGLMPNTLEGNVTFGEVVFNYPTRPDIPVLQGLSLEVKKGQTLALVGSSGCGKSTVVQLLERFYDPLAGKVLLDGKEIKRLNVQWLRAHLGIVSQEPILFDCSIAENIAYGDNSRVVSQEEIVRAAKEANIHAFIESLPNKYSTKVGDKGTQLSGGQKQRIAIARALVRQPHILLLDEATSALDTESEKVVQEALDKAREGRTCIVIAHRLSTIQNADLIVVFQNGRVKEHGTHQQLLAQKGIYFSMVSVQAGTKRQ

Turning to `N[14C]1(C(=O)O)CC(F)C1` (stereo not drawn) [[^14C]fluciclovine, trans-1-amino-3-fluoro[1-^14C]cyclobutanecarboxylic acid], the “uptake compared with control vesicles” value at human P-gp is recorded as “no significant difference”. For the same compound, the drug transporter-mediated uptake result at OATP1B1 is “negligible”.
